Series [1] has as its system expression of pOCAT (ANG N-1498/+18) in Hepa 1-6 cells. The following applies: cited from earlier work.
The subject of series [2] is expression of pOGH (ANG N-1498/+18) in Hep G-TW7 cells. Put plainly: Stimulation of expression of pOGH (ANG N-1498/+18) in stable Hep G-TW7 cells by angiotensins, IR-hGH by RIA. In kind it is cell-based, human. The following applies: 24 hours; for concentration giving maximal stimulation of expression of pOGH (ANG N-1498/+18): 10^-11 to 10^-5 mol/L tested. On the procedure:
The method for the selection of stable hepatoma transformants with high expression of pOGH (ANG N-1498/+18) was similar to that described previously for opossum kidney cells (Wang TT et al., Kidney Int., 1994, 46:703-710). Briefly, plasmids pOGH (ANG N-1498/+18) and pRSV-Neo fusion genes were co-transfected (20 μg each) into Hep G-2 cells (1×10^6 cells) utilizing calcium phosphate-mediated endocytosis (Ming M. et al., Am. J. Hypertens., 1993, 6:141-148). After transfection, the cells were cultured overnight in 5.0 ml of DMEM containing 10% FBS. Then the medium was replaced with fresh medium containing 10% FBS and 500 μg/ml of aminoglycoside G 418 (Geneticin, Gibco Inc.). The stable transformants which were able to grow in the presence of G 418 and which secreted high levels of IR-hGH into the medium were further subcloned using the method of limiting dilution. Those cells that had passed through at least three repetitions of limiting dilution and continued to secrete high levels of IR-hGH after three months in the presence of G 418 were considered to be stable clones. One clone of human hepatoma (Hep G-TW7) with pOGH (ANG N-1498/+18) integrated into the genomes of Hep G-2 cells was obtained. The clone (Hep G-TW7) was used in accordance with the present invention.
Hep G-TW7 cells were plated at a density of 1-2×10^5 cells/well in 6-well plates and incubated overnight in DMEM containing 1% depleted FBS (dFBS). Then cell growth was arrested by incubation in serum-free medium for 24 hours. Subsequently, various concentrations of AII (10^-11 to 10^-5 mol/L) were added to the culture medium containing 1% dFBS. At the end of the incubation period, media were collected and kept at -20° C. until assay for IR-hGH.
Cells were incubated for up to 24 hours in the presence of various concentrations of AII. Media were harvested after 24 hours of incubation and assayed for IR-hGH. Each point represents the mean ±S.D. of at least three dishes (*p<0.05, **p<0.01 and **p<0.005).Similar results were obtained from two other experiments. It appears that maximal stimulation of expression of the pOGH (ANG N-1498/+18) was found with 10^-9 mol/L AII (p<0.01). At other concentrations of AII, it appears that the stimulatory effect of AII is minimal or inhibited.
(§1) The radioimmunoassay kit for hGH (RIA-hGH) was a gift from NIADDK, NIH, USA. The double antibody RIA procedure was similar to that previously used for the radioimmunoassay of ovine placental lactogen (Chan JSD et al., Endocrinology, 1978, 102:1606-1613). NIAMDD-hGH-1 (AFP-4793 B) was used for both iodination and as a hormone standard.
Hep G-TW7 cells were plated at a density of 1-2×10^5 cells/well in 6-well plates and incubated overnight in DMEM containing 1% depleted fetal bovine serum (dFBS). […]

The test system of series [3] is expression of pOGH (ANG N-1498/+18) fusion gene in Hep G-2 cells. Kind of series: Transient gene transfection assay of pOGH (ANG N-1498/+18) in Hep G-2 cells, IR-hGH by RIA. In kind it is cell-based, human. Conditions: AII 10^-9 mol/L; for inhibition of the stimulatory effect of AII on expression of pOGH (ANG N-1498/+18): antagonist 10^-5 mol/L. On the procedure: Plasmids or fusion genes were transfected into Hep G-2 cells utilizing calcium phosphate endocytosis as described previously (Ming M. et al., Am. J. Hypertens., 1993, 6:141-148). It was previously shown that optimal dose of DNA for gene transfection in mouse hepatoma (Hepa 1-6) cells is 20 μg of supercoiled DNA per 0.5-1×10^6 cells (Ming M. et al., Am. J. Hypertens., 1993, 6:141-148). Similar results were obtained in Hep G-2 cells. Thus, in present studies, a total of 20 μg DNA was routinely used in the cell transfection.
To study the effect of AII in the presence or absence of various AII antagonists on the expression of fusion gene in transient gene transfection assays, cells were incubated in DMEM without FBS, 10^-9 mol/L AII with or without 10^-5 mol/L AII antagonist were added on day 1 after DNA transfection. The media or cells were harvested on day 2 for assay of IR-hGH or CAT enzymatic activity, respectively.
In order to normalize the efficiency of transfection of pOGH (ANG N-1498/+18), 1 μg of pRSVCAT (a vector with the Rous Sarcoma Virus enhancer/promoter sequence fused to the 5'-end of the CAT coding sequence) was cotransfected with the pOGH (ANG N-1498/+18) (20 μg DNA). The results of pOGH (ANG N-1498/+18) were normalized to the efficiency of transfection of pRSVCAT. The levels of transfection efficiency for pOGH (ANG N-1498/+18) in human hepatoma cells was 25+12% as compared to pRSVCAT.
Results are expressed as the percentage of the control (without addition of AII antagonist, 100%), mean ±S.D. AII (10^-9 mol/L) stimulated the expression of the ANG-GH fusion gene by 1.4-fold (p<0.01) as compared to the control (absence of AII) in Hep G-2 cells. In the presence of Lorsatan™ (10^-5 mol/L) or Saralasin™ (10^-5 mol/L), the stimulatory effect of AII was inhibited.
as §1

Series [4] has as its system expression of pOGH (ANG N-1498/+18) in Hep G-TW7 cells stimulated by AII. Put plainly: Inhibition of AII-stimulated expression of pOGH (ANG N-1498/+18) in Hep G-TW7 cells, IR-hGH by RIA. The format is cell-based, human. The following applies: AII 10^-9 mol/L, 24 hours; for effect on the stimulatory effect of AII on expression of pOGH (ANG N-1498/+18): various concentrations of test substance. On the procedure:
Hep G-TW7 cells were plated at a density of 1-2×10^5 cells/well in a. 6-well plate and incubated overnight in DMEM containing 1% depleted FBS (dFBS). Then cell growth was arrested by incubation in serum-free medium for 24 hours. Subsequently, various concentrations (10^-9 to 10^-5 mol/L) of Lorsatan™, Saralasin™ and CGP 42112A™ were added to the culture medium containing 1% dFBS in the presence of 10^-9 mol/L AII and incubated for 24 hours. At the end of the incubation period, media were collected and kept at -20° C. until assay.
Cells were incubated for up to 24 hours in the presence of AII (10-9mol/L) and various concentrations of Lorsatan™ (10^-9 to 10^-5 mol/L) or Saralasin™ (10^-9 to 10^-5 mol/L) or CGP 42112A™ (10^-9 to 10^-5 mol/L). Media harvested and assayed for the level of IR-hGH.
Hep G-TW7 cells were plated at a density of 1-2×10^5 cells/well in a 6-well plate and incubated overnight in DMEM containing 1% dFBS. Then cells growth was arrested by incubation in serum-free medium for 24 hours. […] At the end of the incubation period, media were collected and kept at -20° C. until assay.
Media were harvested and assayed for the level of IR-hGH.
The radioimmunoassay kit for hGH (RIA-hGH) was a gift from NIADDK, NIH, USA. […] NIAMDD-hGH-1 (AFP-4793 B) was used for both iodination and as a hormone standard.

The subject of series [5] is expression of pOCAT (ANG N-1498/+18) in hepatoma cells. Put plainly: Transient gene transfection of pOCAT (ANG N-1498/+18) in the presence of hGH, CAT assay. The format is cell-based, human. The following applies: hGH as high as 4.5 mmol/L. The text has this:
The method for the CAT assay has been described previously (Ming M. et al., Am. J. Hypertens., 1993, 6:141-148). The results of all CAT assays are given as a mean+S.D. in triplicates.
In accordance with the present invention, the plasmid pOGH (ANG N-1498/+18) was employed to study the effect of AII (FIGS. 2 to 6). Since receptors for hGH are presented in Hep G-2 cells, this raised the possibility that the hGH secreted into the medium may have a stimulatory effect on the expression of the ANG gene. Thus, in order to investigate this possibility, transient gene transfection experiments were performed by employing pOCAT (ANG N-1498/+18) (Ming M. et al., Am. J. Hypertens., 1993, 6:141-148), in the presence of hGH. […] The use of plasmid pOGH (ANG N-1498/+18) in accordance with the present invention is appropriate.

`Nc1ncnc2c1nc(Br)n2[C@@H]1O[C@@H]2COP(=O)(O)O[C@H]2[C@H]1O` [8-Br-cAMP, 8-Bromo-cAMP]: the “effect on the stimulatory effect of dexamethasone on expression of ANG-CAT fusion genes” value in series [1] (added with DEX) is given as “enhanced the stimulatory effect”. Besides, in series [1], the “effect on expression of ANG-CAT fusion genes, substance alone” value is “no stimulatory effect”.

As to `CC[C@H](C)[C@H](NC(=O)[C@H](Cc1ccc(O)cc1)NC(=O)[C@@H](NC(=O)[C@@H](N)CCCNC(=N)N)C(C)C)C(=O)N[C@@H](Cc1c[nH]cn1)C(=O)N1CCC[C@H]1C(=O)N[C@@H](Cc1ccccc1)C(=O)O` [AIII, angiotensin III], the “effective dose for stimulating the expression of pOGH (ANG N-1498/+18)” value in series [2] is > 10^-5 mol/L.

In the case of `CCCCc1nc(Cl)c(CO)n1Cc1ccc(-c2ccccc2-c2nn[nH]n2)cc1` [Lorsatan], the “inhibition of the stimulatory effect of AII on expression of pOGH (ANG N-1498/+18)” value in series [3] is “inhibited”. The “effect on the stimulatory effect of AII on expression of pOGH (ANG N-1498/+18)” value (from here on “effect on the stimulatory effect of AII”) in series [4] is “inhibits the stimulatory effect of AII”. Also, in series [4] (Homo sapiens, read-out: effective dose for the inhibition of the AII-stimulated expression of pOGH (ANG N-1498/+18)), the minimal effective concentration was 0.001 µM.

Take `CNCC(=O)N[C@@H](CCCN=C(N)N)C(=O)N[C@H](C(=O)N[C@@H](Cc1ccc(O)cc1)C(=O)N[C@H](C(=O)N[C@@H](Cc1cnc[nH]1)C(=O)N1CCC[C@H]1C(=O)N[C@@H](C)C(=O)O)C(C)C)C(C)C` [Saralasin]: the “inhibition of the stimulatory effect of AII on expression of pOGH (ANG N-1498/+18)” value in series [3] is reported as “inhibited”. Further, in series [4], the “effective dose for the inhibition of the AII-stimulated expression of pOGH (ANG N-1498/+18)” value is 10^-7 mol/L and the “effect on the stimulatory effect of AII” value was “inhibits the stimulatory effect of AII”.

With `CN[C@@H]1C[C@H]2O[C@@](C)([C@@H]1OC)n1c3ccccc3c3c4c(c5c6ccccc6n2c5c31)C(=O)NC4` [Staurosporine], the “effect on the stimulatory effect of AII” value in series [4] is reported as “inhibits the stimulatory effect of AII”.

With `C[C@@H]1C[C@H]2[C@@H]3CCC4=CC(=O)C=C[C@]4(C)[C@@]3(F)[C@@H](O)C[C@]2(C)[C@@]1(O)C(=O)CO` [dexamethasone], the “effect on expression of ANG-CAT fusion genes, substance alone” value in series [1] is on record as “stimulates the expression”.

Consider CGP 42112A, for which, in series [3], the “inhibition of the stimulatory effect of AII on expression of pOGH (ANG N-1498/+18)” value is “no inhibitory effect”. Further, the “effective dose for the inhibition of the AII-stimulated expression of pOGH (ANG N-1498/+18)” value in series [4] is listed as > 10^-5 mol/L.

As to “angiotensin I (DRVYIHPFHL; Angiotensin-1; UniProt P01019 25-34, looked up) [AI]”, in series [2], the “concentration giving maximal stimulation of expression of pOGH (ANG N-1498/+18)” value is on record as 10^-7 mol/L.

For “angiotensin II (DRVYIHPF; Angiotensin-2; UniProt P01019 25-32, looked up) [AII, peptide derived from angiotensinogen; stimulus of ANG gene expression]”, in series [3] (p<0.01, 0.001 µM), the “stimulation of the expression of the ANG-GH fusion gene as compared to the control (absence of AII)” value amounted to 1.4 fold. Also, in series [2], the “effective dose for stimulating the expression of pOGH (ANG N-1498/+18)” value is listed as 10^-9 mol/L and the “concentration giving maximal stimulation of expression of pOGH (ANG N-1498/+18)” value is reported as 10^-9 mol/L.

On to hGH: human growth hormone, for which the “effect of hGH on expression of pOCAT (ANG N-1498/+18)” value in series [5] is on record as “No significant increase”.

(Values after patent US5652097A, “In vitro test to evaluate the inhibition potency of angiotensin II antagonists on angiotensinogen” (priority 1994, dated 1997).)
